# Assay results published in PubChem BioAssay AID1963840 (Molecular Pharmacology Branch, DTP, NCI, 2024).
# Tested on: 695427-040-R-J1-PDC complex spheroid viability
# Experiment: Anticancer human tumor 695427-040-R-J1-PDC patient-derived colon adenocarcinoma cell line growth inhibition [POLQ]
# Conditions: for IC50: curve of first compound; for viability, T/C: stronger effect = lower value
# Outline: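 Three-cell-type spheroids modelling solid tumor plus stroma served as the readout system; POL inhibitors were tested individually and in combination, concentration ranges set by clinical Cmax where known.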
# [1] = second compound 0.0316 µM, first compound 0.0316 µM
# [2] = second compound 0.0316 µM, first compound 0.1 µM
# [3] = second compound 0.1 µM, first compound 0.0316 µM
# [4] = second compound 0.1 µM, first compound 0.1 µM
# [5] = second compound 0.316 µM, first compound 0.0316 µM
# [6] = second compound 0.316 µM, first compound 0.1 µM
# [7] = second compound 1 µM, first compound 0.0316 µM
# [8] = second compound 1 µM, first compound 0.1 µM
# [9] = second compound 3.16 µM, first compound 0.0316 µM
# [10] = second compound 3.16 µM, first compound 0.1 µM
# [11] = second compound 10 µM, first compound 0.0316 µM
# [12] = second compound 10 µM, first compound 0.1 µM
# 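Also: spheroids exposed to compounds for seven days.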
# 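For viability, T/C in this document: 100% = DMSO vehicle control viability.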
structure (smiles),measurement,setting,value
CC[C@@]1(O)C(=O)OCc2c1cc1n(c2=O)Cc2cc3c(CN(C)C)c(O)ccc3nc2-1 + Cc1cccc(N(C)C(=O)C2C(O)CCN2c2nc(C)cc(C(F)(F)F)c2C#N)c1,IC50,second compound 0.0316 µM,> 0.1 µM
same,IC50,second compound 0.1 µM,> 0.1 µM
same,IC50,second compound 0.316 µM,> 0.1 µM
same,IC50,second compound 1 µM,> 0.1 µM
same,IC50,second compound 3.16 µM,> 0.1 µM
same,IC50,second compound 10 µM,> 0.1 µM
same,"viability, T/C","second compound 0.0316 µM, first compound 0.000316 µM",110%
same,"viability, T/C","second compound 0.0316 µM, first compound 0.001 µM",98.7%
same,"viability, T/C","second compound 0.0316 µM, first compound 0.00316 µM",104%
same,"viability, T/C","second compound 0.0316 µM, first compound 0.01 µM",94.5%
same,"viability, T/C",[1],99.4%
same,"viability, T/C",[2],88.5%
same,"viability, T/C","second compound 0.1 µM, first compound 0.000316 µM",109%
same,"viability, T/C","second compound 0.1 µM, first compound 0.001 µM",98.5%
same,"viability, T/C","second compound 0.1 µM, first compound 0.00316 µM",94.7%
same,"viability, T/C","second compound 0.1 µM, first compound 0.01 µM",104%
same,"viability, T/C",[3],97.5%
same,"viability, T/C",[4],88.7%
same,"viability, T/C","second compound 0.316 µM, first compound 0.000316 µM",99.1%
same,"viability, T/C","second compound 0.316 µM, first compound 0.001 µM",95.9%
same,"viability, T/C","second compound 0.316 µM, first compound 0.00316 µM",98.2%
same,"viability, T/C","second compound 0.316 µM, first compound 0.01 µM",91.5%
same,"viability, T/C",[5],101%
same,"viability, T/C",[6],87.3%
same,"viability, T/C","second compound 1 µM, first compound 0.000316 µM",98.2%
same,"viability, T/C","second compound 1 µM, first compound 0.001 µM",93.4%
same,"viability, T/C","second compound 1 µM, first compound 0.00316 µM",97.5%
same,"viability, T/C","second compound 1 µM, first compound 0.01 µM",97.1%
same,"viability, T/C",[7],93.7%
same,"viability, T/C",[8],86.9%
same,"viability, T/C","second compound 3.16 µM, first compound 0.000316 µM",92.4%
same,"viability, T/C","second compound 3.16 µM, first compound 0.001 µM",98.5%
same,"viability, T/C","second compound 3.16 µM, first compound 0.00316 µM",91.7%
same,"viability, T/C","second compound 3.16 µM, first compound 0.01 µM",98.4%
same,"viability, T/C",[9],101%
same,"viability, T/C",[10],81.7%
same,"viability, T/C","second compound 10 µM, first compound 0.000316 µM",85.6%
same,"viability, T/C","second compound 10 µM, first compound 0.001 µM",89.4%
same,"viability, T/C","second compound 10 µM, first compound 0.00316 µM",104%
same,"viability, T/C","second compound 10 µM, first compound 0.01 µM",90%
same,"viability, T/C",[11],87.5%
same,"viability, T/C",[12],77.7%
COc1cc2cc(C(=O)CCC(=O)O)sc2cc1OC + Cc1cccc(N(C)C(=O)C2C(O)CCN2c2nc(C)cc(C(F)(F)F)c2C#N)c1,IC50,second compound 0.0316 µM,> 10 µM
same,IC50,second compound 0.1 µM,> 10 µM
same,IC50,second compound 0.316 µM,> 10 µM
same,IC50,second compound 1 µM,> 10 µM
same,IC50,second compound 3.16 µM,> 10 µM
same,IC50,second compound 10 µM,> 10 µM
same,"viability, T/C",[1],100%
same,"viability, T/C",[2],106%
same,"viability, T/C","second compound 0.0316 µM, first compound 0.316 µM",96.5%
same,"viability, T/C","second compound 0.0316 µM, first compound 1 µM",99.5%
same,"viability, T/C","second compound 0.0316 µM, first compound 3.16 µM",105%
same,"viability, T/C","second compound 0.0316 µM, first compound 10 µM",92%
same,"viability, T/C",[3],111%
same,"viability, T/C",[4],97.1%
same,"viability, T/C","second compound 0.1 µM, first compound 0.316 µM",98.2%
same,"viability, T/C","second compound 0.1 µM, first compound 1 µM",95.3%
same,"viability, T/C","second compound 0.1 µM, first compound 3.16 µM",111%
same,"viability, T/C","second compound 0.1 µM, first compound 10 µM",88.3%
same,"viability, T/C",[5],112%
same,"viability, T/C",[6],106%
same,"viability, T/C","second compound 0.316 µM, first compound 0.316 µM",106%
same,"viability, T/C","second compound 0.316 µM, first compound 1 µM",108%
same,"viability, T/C","second compound 0.316 µM, first compound 3.16 µM",114%
same,"viability, T/C","second compound 0.316 µM, first compound 10 µM",100%
same,"viability, T/C",[7],108%
same,"viability, T/C",[8],101%
same,"viability, T/C","second compound 1 µM, first compound 0.316 µM",108%
same,"viability, T/C","second compound 1 µM, first compound 1 µM",98.9%
same,"viability, T/C","second compound 1 µM, first compound 3.16 µM",103%
same,"viability, T/C","second compound 1 µM, first compound 10 µM",88.8%
same,"viability, T/C",[9],96.7%
same,"viability, T/C",[10],98.3%
same,"viability, T/C","second compound 3.16 µM, first compound 0.316 µM",102%
same,"viability, T/C","second compound 3.16 µM, first compound 1 µM",101%
same,"viability, T/C","second compound 3.16 µM, first compound 3.16 µM",97.9%
same,"viability, T/C","second compound 3.16 µM, first compound 10 µM",95.4%
same,"viability, T/C",[11],94.3%
same,"viability, T/C",[12],82.2%
same,"viability, T/C","second compound 10 µM, first compound 0.316 µM",101%
same,"viability, T/C","second compound 10 µM, first compound 1 µM",89.5%
same,"viability, T/C","second compound 10 µM, first compound 3.16 µM",99.4%
same,"viability, T/C","second compound 10 µM, first compound 10 µM",90.9%
